From BindingDB's records for doi:10.1016/j.bmc.2013.03.035 (University of Poitiers, 2013)

Experiment: Inhibition of bovine liver beta-glucosidase

Work on `CC[C@@H]1NC[C@@H](O)[C@@H](O)[C@H](O)[C@H]1O` yielded an IC50 of 487 µM.
